This note sets out measurements from publication PMC4579270, “Identification and Characterization of an Irreversible Inhibitor of CDK2” (Chemistry & Biology, 2015).

What all share (experiment): Dundee protein kinase screen
Assay type in all cases: biochemical

The target in experiment [1] is VEG-FR1 (Homo sapiens, UniProt P17948). The following applies: VEG-FR1, 1µM; read-out: %Remaining activity at 1µM NU6300. The method in brief: (§1)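 Selectivity panel of 131 protein kinases, inhibitor tested at a single concentration of 1 µM; values are % kinase activity remaining, mean of duplicates. Re-test of selected kinases used 0.5 µM in the standard format and again after a 4 hour pre-incubation with the inhibitor.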
VEG-FR1, sequence (P17948 27-1338): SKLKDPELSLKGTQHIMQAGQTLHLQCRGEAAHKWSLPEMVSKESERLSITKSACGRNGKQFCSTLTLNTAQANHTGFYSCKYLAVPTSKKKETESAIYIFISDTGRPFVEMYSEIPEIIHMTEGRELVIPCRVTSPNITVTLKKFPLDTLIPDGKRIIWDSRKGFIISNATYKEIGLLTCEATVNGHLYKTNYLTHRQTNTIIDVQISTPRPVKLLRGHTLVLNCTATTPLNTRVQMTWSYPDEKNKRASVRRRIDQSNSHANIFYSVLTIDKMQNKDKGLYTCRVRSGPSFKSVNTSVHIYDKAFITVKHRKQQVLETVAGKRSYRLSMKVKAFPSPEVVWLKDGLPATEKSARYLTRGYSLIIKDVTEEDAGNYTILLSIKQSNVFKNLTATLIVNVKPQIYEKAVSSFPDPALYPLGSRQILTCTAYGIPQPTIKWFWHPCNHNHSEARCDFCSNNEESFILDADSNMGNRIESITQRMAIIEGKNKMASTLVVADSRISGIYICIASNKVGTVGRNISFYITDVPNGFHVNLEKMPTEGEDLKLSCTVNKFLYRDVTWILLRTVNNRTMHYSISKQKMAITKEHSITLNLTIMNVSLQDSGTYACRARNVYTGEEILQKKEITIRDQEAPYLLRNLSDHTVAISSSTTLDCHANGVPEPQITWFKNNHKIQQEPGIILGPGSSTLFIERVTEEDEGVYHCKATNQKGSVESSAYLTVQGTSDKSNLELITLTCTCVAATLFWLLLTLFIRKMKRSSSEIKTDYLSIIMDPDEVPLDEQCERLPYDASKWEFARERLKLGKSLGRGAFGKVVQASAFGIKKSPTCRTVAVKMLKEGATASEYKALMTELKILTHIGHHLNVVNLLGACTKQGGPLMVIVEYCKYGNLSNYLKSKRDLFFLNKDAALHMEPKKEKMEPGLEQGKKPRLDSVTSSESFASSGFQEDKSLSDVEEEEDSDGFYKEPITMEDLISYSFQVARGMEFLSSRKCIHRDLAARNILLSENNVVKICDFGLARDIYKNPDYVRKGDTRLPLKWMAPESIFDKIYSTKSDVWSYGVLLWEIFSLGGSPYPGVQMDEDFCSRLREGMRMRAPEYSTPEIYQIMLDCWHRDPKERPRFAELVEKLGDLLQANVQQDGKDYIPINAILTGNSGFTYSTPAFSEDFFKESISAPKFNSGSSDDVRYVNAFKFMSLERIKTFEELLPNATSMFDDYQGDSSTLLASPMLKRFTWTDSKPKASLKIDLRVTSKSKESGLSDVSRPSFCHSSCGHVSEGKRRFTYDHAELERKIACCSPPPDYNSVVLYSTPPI

Experiment [2] concerns the target MKK2 (Homo sapiens, UniProt P36507). The conditions noted are these: MKK2, 1µM; read-out: %Remaining activity at 1µM NU6300. The method in brief: as §1
Experiment [3] has as its target T1, TAO1 (Homo sapiens, UniProt Q7L7X3).
T1 sequence (Q7L7X3 1-1001): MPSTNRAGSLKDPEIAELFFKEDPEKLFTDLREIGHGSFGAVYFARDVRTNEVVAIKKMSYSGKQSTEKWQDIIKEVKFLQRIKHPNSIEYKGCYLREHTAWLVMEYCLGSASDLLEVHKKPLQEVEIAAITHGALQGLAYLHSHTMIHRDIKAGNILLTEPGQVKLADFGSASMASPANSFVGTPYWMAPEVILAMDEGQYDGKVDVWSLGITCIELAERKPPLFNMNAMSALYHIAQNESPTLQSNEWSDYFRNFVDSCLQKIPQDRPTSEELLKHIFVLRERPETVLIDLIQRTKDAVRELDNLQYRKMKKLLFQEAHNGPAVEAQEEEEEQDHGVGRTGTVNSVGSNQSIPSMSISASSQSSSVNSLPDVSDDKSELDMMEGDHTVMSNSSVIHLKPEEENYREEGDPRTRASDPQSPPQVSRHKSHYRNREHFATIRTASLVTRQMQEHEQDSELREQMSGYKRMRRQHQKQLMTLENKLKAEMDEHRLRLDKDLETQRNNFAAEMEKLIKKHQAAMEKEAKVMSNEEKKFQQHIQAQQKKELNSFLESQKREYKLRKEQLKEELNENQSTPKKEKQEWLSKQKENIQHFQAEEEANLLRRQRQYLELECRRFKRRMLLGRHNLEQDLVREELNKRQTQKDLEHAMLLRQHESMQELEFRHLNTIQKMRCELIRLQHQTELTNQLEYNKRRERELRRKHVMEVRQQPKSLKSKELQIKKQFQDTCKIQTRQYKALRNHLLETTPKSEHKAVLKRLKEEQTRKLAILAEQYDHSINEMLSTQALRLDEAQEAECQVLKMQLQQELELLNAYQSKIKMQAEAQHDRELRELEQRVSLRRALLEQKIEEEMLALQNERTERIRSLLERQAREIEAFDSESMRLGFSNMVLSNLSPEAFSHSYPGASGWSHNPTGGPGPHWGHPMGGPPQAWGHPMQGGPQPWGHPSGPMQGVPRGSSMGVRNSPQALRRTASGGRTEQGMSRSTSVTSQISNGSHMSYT
The conditions noted are these: TAO1, 1µM; read-out: %Remaining activity at 1µM NU6300. The method in brief: as §1

Experiment [4] addresses FGF-R1 (Homo sapiens, UniProt P11362). The conditions noted are these: FGF-R1, 1µM; read-out: %Remaining activity at 1µM NU6300. The essentials: as §1
For experiment [5], the target named is PAK4 (Homo sapiens, UniProt O96013). The conditions noted are these: PAK4, 1µM; read-out: %Remaining activity at 1µM NU6300. The method in brief:
as §1

Experiment [6] concerns the target p38δ MAPK (Homo sapiens, UniProt O15264). The conditions noted are these: read-out: %Remaining activity at 1µM NU6300. The essentials:
as §1

Experiment [7] addresses CK2 (Homo sapiens, UniProt P68400). The following applies: CK2, 1µM; read-out: %Remaining activity at 1µM NU6300. The essentials:
as §1

Experiment [8] has as its target T2, ERK8 (Homo sapiens, UniProt Q8TD08).
T2 sequence (Q8TD08 1-544): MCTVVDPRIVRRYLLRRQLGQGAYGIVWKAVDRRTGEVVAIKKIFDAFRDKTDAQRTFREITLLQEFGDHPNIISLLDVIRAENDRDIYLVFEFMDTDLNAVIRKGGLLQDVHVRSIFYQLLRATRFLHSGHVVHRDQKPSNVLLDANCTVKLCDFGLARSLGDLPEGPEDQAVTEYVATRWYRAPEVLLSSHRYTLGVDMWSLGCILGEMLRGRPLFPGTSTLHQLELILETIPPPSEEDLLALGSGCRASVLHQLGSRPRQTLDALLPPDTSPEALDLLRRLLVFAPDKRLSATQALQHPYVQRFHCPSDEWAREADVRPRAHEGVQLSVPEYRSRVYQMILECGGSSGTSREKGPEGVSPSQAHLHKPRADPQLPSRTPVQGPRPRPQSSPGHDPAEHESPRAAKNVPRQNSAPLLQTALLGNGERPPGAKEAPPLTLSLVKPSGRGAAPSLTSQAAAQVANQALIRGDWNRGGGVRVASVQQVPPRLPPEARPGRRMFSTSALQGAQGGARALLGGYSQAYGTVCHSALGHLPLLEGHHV
The conditions noted are these: ERK8, 1µM; read-out: %Remaining activity at 1µM NU6300. The method in brief: as §1

Experiment [9] concerns the target HER4 (Homo sapiens, UniProt Q15303). The conditions noted are these: HER4, 1µM; read-out: %Remaining activity at 1µM NU6300. The method in brief: as §1

MKK2, sequence (P36507 whole entry): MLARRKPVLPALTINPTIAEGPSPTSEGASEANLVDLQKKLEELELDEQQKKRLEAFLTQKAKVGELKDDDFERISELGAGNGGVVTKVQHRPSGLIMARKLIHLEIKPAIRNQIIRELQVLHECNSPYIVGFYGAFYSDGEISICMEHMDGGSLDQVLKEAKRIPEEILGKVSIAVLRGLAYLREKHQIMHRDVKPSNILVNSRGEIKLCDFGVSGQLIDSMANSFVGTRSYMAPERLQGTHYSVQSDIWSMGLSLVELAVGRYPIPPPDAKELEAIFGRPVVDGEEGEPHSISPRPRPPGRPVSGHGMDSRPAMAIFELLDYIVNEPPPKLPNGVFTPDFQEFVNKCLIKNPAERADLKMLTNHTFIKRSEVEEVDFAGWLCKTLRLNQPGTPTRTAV
FGF-R1, sequence (P11362 22-822): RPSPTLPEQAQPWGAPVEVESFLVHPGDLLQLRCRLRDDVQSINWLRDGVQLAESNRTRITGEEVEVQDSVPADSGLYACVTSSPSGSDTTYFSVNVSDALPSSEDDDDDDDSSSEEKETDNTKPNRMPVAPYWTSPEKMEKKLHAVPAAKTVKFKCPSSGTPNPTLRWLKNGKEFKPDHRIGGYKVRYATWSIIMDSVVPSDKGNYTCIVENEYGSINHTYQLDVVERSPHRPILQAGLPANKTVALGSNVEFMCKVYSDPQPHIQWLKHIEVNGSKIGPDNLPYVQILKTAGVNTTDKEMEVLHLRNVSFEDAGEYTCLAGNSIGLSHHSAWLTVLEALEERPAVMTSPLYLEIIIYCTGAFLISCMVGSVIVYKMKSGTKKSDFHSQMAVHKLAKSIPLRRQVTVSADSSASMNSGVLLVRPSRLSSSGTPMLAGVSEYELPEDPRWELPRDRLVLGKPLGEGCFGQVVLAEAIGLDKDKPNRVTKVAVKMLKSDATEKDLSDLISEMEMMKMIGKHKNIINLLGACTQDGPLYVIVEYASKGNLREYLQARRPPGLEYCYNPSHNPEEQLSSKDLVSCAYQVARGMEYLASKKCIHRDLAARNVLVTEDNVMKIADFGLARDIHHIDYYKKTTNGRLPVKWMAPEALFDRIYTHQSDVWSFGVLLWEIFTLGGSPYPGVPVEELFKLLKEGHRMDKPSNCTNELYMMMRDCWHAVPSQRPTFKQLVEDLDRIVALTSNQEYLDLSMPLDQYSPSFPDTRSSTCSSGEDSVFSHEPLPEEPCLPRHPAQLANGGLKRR
p38δ MAPK, sequence (O15264 whole entry): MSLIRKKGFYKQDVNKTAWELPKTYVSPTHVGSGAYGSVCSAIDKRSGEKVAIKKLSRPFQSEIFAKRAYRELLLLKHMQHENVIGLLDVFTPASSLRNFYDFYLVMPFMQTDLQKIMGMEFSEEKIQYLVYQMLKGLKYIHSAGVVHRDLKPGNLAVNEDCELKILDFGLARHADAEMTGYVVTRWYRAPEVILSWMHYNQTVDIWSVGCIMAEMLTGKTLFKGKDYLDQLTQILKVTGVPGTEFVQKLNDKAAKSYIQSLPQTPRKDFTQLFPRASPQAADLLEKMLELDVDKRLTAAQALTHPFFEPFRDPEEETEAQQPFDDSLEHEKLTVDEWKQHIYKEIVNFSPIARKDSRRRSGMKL
HER4, sequence (Q15303 26-1308): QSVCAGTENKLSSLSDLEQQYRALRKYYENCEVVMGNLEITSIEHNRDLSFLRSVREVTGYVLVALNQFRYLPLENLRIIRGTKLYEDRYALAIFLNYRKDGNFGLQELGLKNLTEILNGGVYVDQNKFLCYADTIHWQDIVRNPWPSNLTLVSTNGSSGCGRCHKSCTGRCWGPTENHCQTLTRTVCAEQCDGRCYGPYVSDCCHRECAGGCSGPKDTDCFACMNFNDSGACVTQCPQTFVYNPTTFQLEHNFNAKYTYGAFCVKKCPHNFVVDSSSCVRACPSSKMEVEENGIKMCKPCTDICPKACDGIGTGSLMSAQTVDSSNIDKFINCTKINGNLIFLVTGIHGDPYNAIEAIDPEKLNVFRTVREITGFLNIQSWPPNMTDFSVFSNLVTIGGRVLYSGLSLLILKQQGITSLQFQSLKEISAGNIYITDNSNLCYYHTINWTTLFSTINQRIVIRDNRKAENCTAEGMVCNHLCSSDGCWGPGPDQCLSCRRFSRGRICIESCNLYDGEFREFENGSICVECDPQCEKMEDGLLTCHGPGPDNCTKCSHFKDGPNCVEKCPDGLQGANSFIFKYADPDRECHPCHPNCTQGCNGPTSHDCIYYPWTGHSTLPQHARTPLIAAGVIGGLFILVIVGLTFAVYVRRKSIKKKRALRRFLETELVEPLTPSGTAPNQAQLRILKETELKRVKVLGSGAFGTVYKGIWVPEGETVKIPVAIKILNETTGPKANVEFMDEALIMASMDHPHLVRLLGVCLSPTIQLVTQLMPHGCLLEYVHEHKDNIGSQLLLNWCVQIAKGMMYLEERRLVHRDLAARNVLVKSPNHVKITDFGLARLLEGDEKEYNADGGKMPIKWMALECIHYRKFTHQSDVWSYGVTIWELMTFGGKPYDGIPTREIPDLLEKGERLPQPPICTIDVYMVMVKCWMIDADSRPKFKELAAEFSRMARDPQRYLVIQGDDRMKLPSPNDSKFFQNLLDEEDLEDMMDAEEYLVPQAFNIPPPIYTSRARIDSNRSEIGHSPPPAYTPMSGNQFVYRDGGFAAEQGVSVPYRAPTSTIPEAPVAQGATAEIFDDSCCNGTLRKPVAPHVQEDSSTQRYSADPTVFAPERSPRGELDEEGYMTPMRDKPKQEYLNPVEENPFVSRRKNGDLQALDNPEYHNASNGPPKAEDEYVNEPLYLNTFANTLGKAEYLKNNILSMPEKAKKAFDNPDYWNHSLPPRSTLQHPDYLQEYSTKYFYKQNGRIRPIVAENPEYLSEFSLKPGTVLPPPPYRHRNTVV
PAK4, sequence (O96013 whole entry): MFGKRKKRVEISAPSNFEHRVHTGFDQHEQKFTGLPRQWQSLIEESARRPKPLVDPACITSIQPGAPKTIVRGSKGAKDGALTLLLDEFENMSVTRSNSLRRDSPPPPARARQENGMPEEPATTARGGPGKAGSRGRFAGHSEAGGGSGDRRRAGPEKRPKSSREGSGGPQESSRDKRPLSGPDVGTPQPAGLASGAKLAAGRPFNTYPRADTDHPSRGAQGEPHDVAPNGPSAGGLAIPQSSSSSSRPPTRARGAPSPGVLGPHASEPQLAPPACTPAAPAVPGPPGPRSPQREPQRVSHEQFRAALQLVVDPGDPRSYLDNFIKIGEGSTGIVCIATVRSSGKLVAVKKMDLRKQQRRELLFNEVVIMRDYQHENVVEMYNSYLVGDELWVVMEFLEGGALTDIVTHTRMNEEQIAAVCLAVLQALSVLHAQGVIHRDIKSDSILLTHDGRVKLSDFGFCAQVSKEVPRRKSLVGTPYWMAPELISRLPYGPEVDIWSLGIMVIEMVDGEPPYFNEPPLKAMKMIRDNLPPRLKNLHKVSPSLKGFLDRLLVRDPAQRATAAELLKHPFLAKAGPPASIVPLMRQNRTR

Regarding `C=CS(=O)(=O)c1ccc(Nc2nc(OCC3CCCCC3)c3nc[nH]c3n2)cc1` [NU6300, 6-(cyclohexylmethoxy)-N-(4-(vinylsulfonyl)phenyl)-9H-purin-2-amine], the remaining activity at 1 µM is 14% in experiment [1]; 84% in [2]; 27% in experiment [3]; 62% in experiment [4]; 35% in experiment [5]; 92% in experiment [6]. Moreover, the remaining activity at 1 µM in experiment [7] came to 91%; in [8] it was 24%; in experiment [9], 73%.

In general, remaining activity refers to the share of the control activity or signal that is left under treatment.
